US8697385B1, “Protein controlling synthesis of collagen and associated methods” (Florida State University Research Foundation, Inc., priority 2009, dated 2014)

Key:
Δ5′SL MEFs = assay: Western blot analysis of collagen α1(I) polypeptide, Δ5′SL MEFs; format: cell-based, mouse; conditions: ML-7 treatment
Procedure: (§1) ML-7, blebbistatin, cytochalasin B, puromycin, and cycloheximide were purchased from Sigma. ML-7 was used at 40 μM, blebbistatin was used at 100 μM, and cytochalasin B was used at 20 μM. Cells were incubated with the drugs for 16 h before analysis. Puromycin (200 μg/ml) and cycloheximide (100 μg/ml) were added to the cells for 2 h. Human lung fibroblasts have been described previously.16 Scleroderma fibroblasts were purchased from the European Collection of Cell Cultures (cell line BM0070) and derived from the skin of a scleroderma patient. MEFs were derived from knock-in mice in which the 5′SL of the collagen α1(I) gene has been mutated (Parsons et al., submitted). Several independent cell isolates were used throughout the study. All cells were cultured in Dulbecco's modified Eagle's medium supplemented with 10% fetal bovine serum for up to 10 passages. […] [^32P]dCTP was included in the PCR step to label the products, which were resolved on sequencing gels, as described previously.^8,31,49,50 When RNA from polysomal fractions was analyzed, an equal aliquot of each fraction was used. […]
(§2) Protein concentration was estimated by the Bradford assay, with bovine serum albumin as standard.^51 Western blot analyses of cellular proteins were performed using 50 μg of protein. […] The medium was collected, and an aliquot was analyzed directly by Western blot analysis. […]

[1] = tested on: nonmuscle myosin filaments; assay: Immunostaining of nonmuscle myosin IIB filaments in scleroderma fibroblasts; format: cell-based, human; conditions: ML-7, compared with effect in lung fibroblasts
Procedure: as §1, §2

wild-type (WT) MEFs = assay: Western blot analysis of collagen α1(I) polypeptide, WT MEFs; format: cell-based, mouse; conditions: ML-7 treatment
Procedure: as §1, §2

lung fibroblasts = assay: Immunostaining for subcellular colocalization of collagen α1(I) and α2(I) polypeptides; format: cell-based, human; conditions: ML-7-treated vs control cells (high degree of colocalization)
Procedure: as §1, §2

calnexin = assay: Immunostaining for the ER marker protein calnexin; format: cell-based; conditions: ML-7-treated cells vs control cells
Procedure: Protein concentration was estimated by the Bradford assay, with bovine serum albumin as standard.^51 Western blot analyses of cellular proteins were performed using 50 μg of protein. For Western blot analysis of secreted proteins, equal numbers of cells were seeded, serum-free medium was added to the cells, and incubation continued for 3 h. The medium was collected, and an aliquot was analyzed directly by Western blot analysis. Use of serum free medium in collecting secreted proteins is essential because fetal calf serum contains substantial amounts of collagen and fibronectin.^15,31 For immunostaining, cells were seeded onto glass coverslips. […]
To assess the role of nonmuscle myosin in collagen synthesis, we disrupted nonmuscle myosin filaments in two different cell types: primary human lung fibroblasts and primary scleroderma skin fibroblasts. […] To assess the effect of ML-7 on collagen protein synthesis and secretion, we analyzed the levels of collagen α1(I) and α2(I) polypeptides in the intracellularly space and in the medium using Western blot analysis and chain-specific antibodies.^12,15,31-33 ML-7 treatment profoundly affected the secretion of type I collagen, but the effect differed in the two types of primary fibroblasts. […]

human lung fibroblasts = assay: Western blot analysis of cellular and medium collagen polypeptides, lung fibroblasts; format: cell-based; conditions: 16 h, ML-7 40 μM, blebbistatin 100 μM, vs control cells
Procedure: ML-7, blebbistatin, cytochalasin B, puromycin, and cycloheximide were purchased from Sigma. ML-7 was used at 40 μM, blebbistatin was used at 100 μM, and cytochalasin B was used at 20 μM. Cells were incubated with the drugs for 16 h before analysis. Puromycin (200 μg/ml) and cycloheximide (100 μg/ml) were added to the cells for 2 h. Human lung fibroblasts have been described previously.16 Scleroderma fibroblasts were purchased from the European Collection of Cell Cultures (cell line BM0070) and derived from the skin of a scleroderma patient. MEFs were derived from knock-in mice in which the 5′SL of the collagen α1(I) gene has been mutated (Parsons et al., submitted). Several independent cell isolates were used throughout the study. All cells were cultured in Dulbecco's modified Eagle's medium supplemented with 10% fetal bovine serum for up to 10 passages. Plasmid constructs and adenovirus preparation. The HA-tagged LARP6 clone and the deletion mutants have been described previously.^16 Adenoviruses were constructed by recloning of the constructs into the pAdCMVTRACK vector, followed by recombination with the pAdEasy vector and amplification, as described previously.^48 Expression of each construct was verified by Western blot analysis. The viruses made express both the full-size test protein and the green fluorescent protein (GFP), which is encoded by an independent transcription unit.^48 Expression of GFP served as control for viral transduction. RT-PCR analysis Total cellular RNA was isolated using an RNA isolation kit (Sigma). RT-PCRs were performed with 100 ng of total RNA or using rTth reverse transcriptase (Boca Scientific, Boca Raton, Fla.). [^32P]dCTP was included in the PCR step to label the products, which were resolved on sequencing gels, as described previously.^8,31,49,50 When RNA from polysomal fractions was analyzed, an equal aliquot of each fraction was used. The number of cycles was adjusted to within the linear range of the reaction. The primers used for RT-PCR were as follows: h-collagen α1(I), 5′ primer […] (SEQ ID NO:3) and 3′ primer […] (SEQ ID NO:4); h-collagen α2(I), 5′ primer […] (SEQ ID NO:5) and 3′ primer […] (SEQ ID NO:6).
Protein concentration was estimated by the Bradford assay, with bovine serum albumin as standard.^51 Western blot analyses of cellular proteins were performed using 50 μg of protein. For Western blot analysis of secreted proteins, equal numbers of cells were seeded, serum-free medium was added to the cells, and incubation continued for 3 h. The medium was collected, and an aliquot was analyzed directly by Western blot analysis. Use of serum free medium in collecting secreted proteins is essential because fetal calf serum contains substantial amounts of collagen and fibronectin.^15,31 For immunostaining, cells were seeded onto glass coverslips. After treatment, the cells were fixed with 4% paraformaldehyde for 30 min at room temperature and permeabilized with 0.5% Triton X-100 in phosphatebuffered saline (PBS) for 10 min. After the cells had been blocked with 10% goat serum/5% bovine serum albumin in PBS for 1 h at room temperature, they were incubated with primary antibody overnight at 4° C., washed, and visualized with AlexaFluor594-conjugated or Cy-2-conjugated secondary antibodies. The cells were mounted using VECTASHIELD mounting medium containing […], 6-diamidino-2-phenylindole (Vector Laboratories), and images were taken by a Leica TCS SP2 AOBS laser confocal microscope equipped with a Chameleon Ti: Sapphire multiphoton laser. Optical sections were processed with LCSLite software.
To assess the role of nonmuscle myosin in collagen synthesis, we disrupted nonmuscle myosin filaments in two different cell types: primary human lung fibroblasts and primary scleroderma skin fibroblasts. These cells are responsible for lung and skin fibrosis. […]

`O=S(=O)(c1cccc2c(I)cccc12)N1CCCNCC1` [ML-7] was tested, and the “secretion of α1(I) polypeptide into the medium” value (Δ5′SL MEFs) was “did not affect”, the “myosin IIB immunostaining (filaments)” value [1] was “same effect” and the “cellular level of α1(I) polypeptide” value (wild-type (WT) MEFs) was “did not change”. The “secretion of α1(I) polypeptide into the medium” value (wild-type (WT) MEFs) was “drastically reduced”, the “subcellular colocalization of α1(I) and α2(I) polypeptides” value (lung fibroblasts) was “a significant fraction of α2(I) polypeptide (red) was not colocalized with α1(I) polypeptide” and the “calnexin immunostaining (organization of the ER)” value (calnexin) was “did not show a difference”. For the same compound, the “secretion of collagen α1(I) polypeptide into the medium” value (human lung fibroblasts; cytochalasin B 20 μM) was “found in similar amounts”, the “secretion of collagen α2(I) polypeptide into the medium” value (human lung fibroblasts; cytochalasin B 20 μM) was “secreted only in trace amounts” and the secretion/expression of fibronectin (human lung fibroblasts; cytochalasin B 20 μM) was “not affected”. For the same compound, the “intracellular level of collagen α1(I) and α2(I) polypeptides” value (human lung fibroblasts) was “not significantly affected”.
